The target of assay [1] is T1, Gonadotropin-releasing hormone receptor (Rattus norvegicus, UniProt P30969).
T1 sequence (P30969 whole entry): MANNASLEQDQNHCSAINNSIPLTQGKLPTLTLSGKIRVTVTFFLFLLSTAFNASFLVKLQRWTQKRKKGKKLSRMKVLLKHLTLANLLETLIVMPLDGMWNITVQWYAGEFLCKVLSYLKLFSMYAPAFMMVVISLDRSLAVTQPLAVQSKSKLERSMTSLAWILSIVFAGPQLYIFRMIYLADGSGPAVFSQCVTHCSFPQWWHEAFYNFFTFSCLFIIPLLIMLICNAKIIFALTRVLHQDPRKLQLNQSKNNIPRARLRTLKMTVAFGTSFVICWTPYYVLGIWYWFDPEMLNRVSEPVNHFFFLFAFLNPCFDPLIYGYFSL
The assay can be described thus: Affinity for rat gonadotrophin releasing hormone (GnRH) receptor using HEK293 cells transfected with rat Gonadotropin-releasing hormone receptor. Type of assay: cell-based.

The species entered for a further assay is Rattus norvegicus. The assay is described as follows: Antiovulatory potency at 1000 ug/rat expressed as rats ovulating by total no. of rats (4/4). Type of assay: functional.

Molecules are shown by their SMILES. Bridge positions count the residues as written; N and C are the ends. Square brackets hold non-standard residues; d marks the D form. Peptide text beside a SMILES is read from it. dPhe(4-Cl) = N[C@H](Cc1ccc(Cl)cc1)C(=O)O; dPhe(4-F) = N[C@H](Cc1ccc(F)cc1)C(=O)O; d2Nal = N[C@H](Cc1ccc2ccccc2c1)C(=O)O; NMeL = CN[C@@H](CC(C)C)C(=O)O; ΔPro = O=C(O)[C@@H]1C=CCN1; Dap = NC[C@H](N)C(=O)O; βAla = NCCC(=O)O

The Ki is the dissociation constant of the complex between target and ligand, obtained from inhibition or displacement. A high value points to lower affinity.

The molecule `CC(=O)N[C@H](Cc1ccc2ccccc2c1)C(=O)N[C@@H]1CCC(=O)NCCCC[C@@H]2NC(=O)[C@H](CC(C)C)NC(=O)[C@@H](Cc3ccc4ccccc4c3)NC(=O)[C@H](CCCN=C(N)N)NC(=O)[C@H](CC(=O)NC[C@@H](C(N)=O)NC(=O)[C@@H]3CCCN3C2=O)NC(=O)[C@@H](Cc2cccnc2)NC1=O` [listing 1 of 2 here] had a Ki in assay [1] (hek293) of 15 nM. Consider `CC(=O)N[C@H](Cc1ccc2ccccc2c1)C(=O)N[C@@H]1CCC(=O)NCCCC[C@@H]2NC(=O)[C@H](CC(C)C)NC(=O)[C@@H](Cc3ccc4ccccc4c3)NC(=O)[C@H](CCCN=C(N)N)NC(=O)[C@H](CC(=O)NC[C@@H](C(N)=O)NC(=O)[C@@H]3CCCN3C2=O)NC(=O)[C@@H](Cc2cccnc2)NC1=O` [listing 2 of 2 here], for which, in the assay listed under Rattus norvegicus, the Ovulating rats was 4. In assay [1] (hek293), `CC(=O)N[C@H]1CCC(=O)NCCCC[C@@H](C(=O)N2CCC[C@H]2C(=O)N[C@@H](C)C(N)=O)NC(=O)[C@H](CC(C)C)NC(=O)[C@H](Cc2ccc3ccccc3c2)NC(=O)[C@H](CCCNC(=N)N)NC(=O)[C@H](C)NC(=O)[C@H](Cc2cccnc2)NC(=O)[C@H](Cc2ccc(Cl)cc2)NC1=O` displayed a Ki of 62 nM. The Ovulating rats in the assay listed under Rattus norvegicus was found to be 4. `CC(=O)N[C@H](Cc1ccc2ccccc2c1)C(=O)N[C@H](Cc1ccc(F)cc1)C(=O)N[C@H](Cc1c[nH]c2ccccc12)C(=O)N[C@H]1CC(=O)NC[C@@H](C(N)=O)NC(=O)[C@@H]2CCCN2C(=O)[C@@H]2CCCCNC(=O)CC[C@H](NC1=O)C(=O)N[C@H](CCCN=C(N)N)C(=O)N[C@@H](CC(C)C)C(=O)N2`: the Ki in assay [1] (hek293) was 0.32 nM. Same read-out and setting: then `CC(=O)N[C@H](Cc1ccc2ccccc2c1)C(=O)N[C@H](Cc1ccc(F)cc1)C(=O)N[C@H](Cc1cccnc1)C(=O)N[C@H]1CC(=O)NC[C@@H](C(N)=O)NC(=O)[C@@H]2CCCN2C(=O)[C@@H]2CCNC(=O)CNC(=O)CC[C@H](NC1=O)C(=O)N[C@H](CCCN=C(N)N)C(=O)N[C@@H](CC(C)C)C(=O)N2`, with 0.12 nM; and `CC(=O)N[C@H](Cc1ccc2ccccc2c1)C(=O)N[C@@H]1CCC(=O)NCCCC[C@@H](C(=O)N2CCC[C@H]2C(=O)N[C@H](C)C(N)=O)NC(=O)[C@H](CC(C)C)NC(=O)[C@@H](Cc2ccc3ccccc3c2)NC(=O)[C@H](CCCN=C(N)N)NC(=O)[C@H](C)NC(=O)[C@@H](Cc2cccnc2)NC1=O`, with 110 nM. Molecule `CC(=O)N[C@H](Cc1ccc2ccccc2c1)C(=O)N[C@@H]1CC(=O)NC[C@@H](C(=O)N2CCC[C@H]2C(=O)N[C@H](C)C(N)=O)NC(=O)[C@H](CC(C)C)NC(=O)[C@@H](Cc2ccc3ccccc3c2)NC(=O)[C@H](CCCNC(=N)N)NC(=O)[C@H](C)NC(=O)[C@@H](Cc2cccnc2)NC1=O` [listing 1 of 2 here] gave a Ki in assay [1] (hek293) of 67 nM. On to `CC(=O)N[C@H](Cc1ccc2ccccc2c1)C(=O)N[C@@H]1CC(=O)NC[C@@H](C(=O)N2CCC[C@H]2C(=O)N[C@H](C)C(N)=O)NC(=O)[C@H](CC(C)C)NC(=O)[C@@H](Cc2ccc3ccccc3c2)NC(=O)[C@H](CCCNC(=N)N)NC(=O)[C@H](C)NC(=O)[C@@H](Cc2cccnc2)NC1=O` [listing 2 of 2 here], for which the Ovulating rats in the assay filed under Rattus norvegicus stood at 4. As for `CC(=O)N[C@H](Cc1ccc2ccccc2c1)C(=O)N[C@H](Cc1ccc(Cl)cc1)C(=O)N[C@@H]1CCC(=O)NCCCC[C@@H](C(=O)N2CCC[C@H]2C(=O)N[C@H](C)C(N)=O)NC(=O)[C@H](CC(C)C)NC(=O)[C@@H](Cc2ccc3ccccc3c2)NC(=O)[C@H](CCCNC(=N)N)NC(=O)[C@H](CO)NC1=O`, in assay [1] (hek293), the Ki came out at 23 nM. The molecule `CC(=O)N[C@H](Cc1ccc2ccccc2c1)C(=O)N[C@H](Cc1ccc(Cl)cc1)C(=O)N[C@@H]1CC(=O)NC[C@@H](C(=O)N2CCC[C@H]2C(=O)N[C@H](C)C(N)=O)NC(=O)[C@H](CC(C)C)NC(=O)[C@@H](Cc2ccc3ccccc3c2)NC(=O)[C@H](CCCN=C(N)N)NC(=O)[C@H](C)NC1=O` [listing 1 of 2 here] displayed an inhibition constant (Ki) in assay [1] of 21 nM. Consider `CC(=O)N[C@H](Cc1ccc2ccccc2c1)C(=O)N[C@H](Cc1ccc(Cl)cc1)C(=O)N[C@@H]1CC(=O)NC[C@@H](C(=O)N2CCC[C@H]2C(=O)N[C@H](C)C(N)=O)NC(=O)[C@H](CC(C)C)NC(=O)[C@@H](Cc2ccc3ccccc3c2)NC(=O)[C@H](CCCN=C(N)N)NC(=O)[C@H](C)NC1=O` [listing 2 of 2 here], for which the Ovulating rats in the assay filed under Rattus norvegicus turned out to be 4. As to `CC(=O)N[C@H](Cc1ccc2ccccc2c1)C(=O)N[C@H](Cc1ccc(Cl)cc1)C(=O)N[C@@H]1CC(=O)NCCC[C@@H](C(=O)N2CCC[C@H]2C(=O)N[C@H](C)C(N)=O)NC(=O)[C@H](CC(C)C)NC(=O)[C@@H](Cc2ccc3ccccc3c2)NC(=O)[C@H](CCCNC(=N)N)NC(=O)[C@H](C)NC1=O`, in assay [1], the Ki turned out to be 14 nM. That is a double-digit nanomolar value. On the same count and under the same terms, the figure for `CC(=O)N[C@H](Cc1ccc2ccccc2c1)C(=O)N[C@H](Cc1ccc(Cl)cc1)C(=O)N[C@@H]1CC(=O)NCC[C@@H](C(=O)N2CCC[C@H]2C(=O)N[C@H](C)C(N)=O)NC(=O)[C@H](CC(C)C)NC(=O)[C@@H](Cc2ccc3ccccc3c2)NC(=O)[C@H](CCCNC(=N)N)NC(=O)[C@H](C)NC1=O` is 13 nM.

For the molecule `CC(=O)N[C@H](Cc1ccc2ccccc2c1)C(=O)N[C@H]1CC(=O)NCC(=O)NC[C@@H]2NC(=O)[C@H](Cc3ccc(O)cc3)NC(=O)[C@H](CC(=O)NC[C@@H](C(N)=O)NC(=O)[C@@H]3CCCN3C(=O)[C@H](CCCN=C(N)N)NC(=O)[C@H](CC(C)C)NC2=O)NC(=O)[C@@H](Cc2c[nH]c3ccccc23)NC1=O`, in assay [1] (hek293), the Ki was 490 nM. In the assay listed under Rattus norvegicus, this molecule returned an Ovulating rats of 4.

On to `CC(=O)N[C@H](Cc1ccc2ccccc2c1)C(=O)N[C@H](Cc1ccc(Cl)cc1)C(=O)N[C@@H]1CC(=O)NCCCC[C@@H]2NC(=O)[C@H](CC(C)C)NC(=O)[C@@H](CCCNC(=N)N)NC(=O)[C@H](Cc3ccc(O)cc3)NC(=O)[C@H](CC(=O)NC[C@@H](C(N)=O)NC(=O)[C@@H]3CCCN3C2=O)NC1=O`, for which, in assay [1] (hek293), the affinity corresponds to a Ki of 17 nM. Molecule `CC(=O)N[C@@H]1CCC(=O)NCCCC[C@@H](C(=O)N2CCC[C@H]2C(=O)N[C@@H](C)C(N)=O)NC(=O)[C@H](CC(C)C)NC(=O)[C@H](Cc2ccc3ccccc3c2)NC(=O)[C@H](CCCNC(=N)N)NC(=O)[C@H](C)NC(=O)[C@H](Cc2cccnc2)NC(=O)[C@H](Cc2ccc(Cl)cc2)NC1=O` showed a Ki in assay [1] (hek293) of 55 nM. Further, the Ovulating rats in the assay filed under Rattus norvegicus came to 4. In turn, `CC(=O)N[C@H](Cc1ccc2ccccc2c1)C(=O)N[C@H](Cc1ccc(Cl)cc1)C(=O)N[C@@H]1CC(=O)NCCCC[C@@H]2NC(=O)[C@H](CC(C)C)NC(=O)[C@@H](Cc3ccc4ccccc4c3)NC(=O)[C@H](CCCNC(=N)N)NC(=O)[C@H](CC(=O)NC[C@@H](C(N)=O)NC(=O)[C@@H]3CCCN3C2=O)NC1=O` showed a Ki in assay [1] (hek293) of 11 nM. Still for that read-out and setting: then `CC(=O)N[C@H]1CC(=O)NCC(=O)NCC[C@H]2NC(=O)[C@H](CC(=O)NC[C@@H](C(N)=O)NC(=O)[C@@H]3CCCN3C(=O)[C@H](CCCN=C(N)N)NC(=O)[C@H](CC(C)C)NC(=O)[C@@H](Cc3ccc4ccccc4c3)NC2=O)NC(=O)[C@@H](Cc2c[nH]c3ccccc23)NC(=O)[C@@H](Cc2ccc(Cl)cc2)NC1=O`, with 3.1 nM. In turn, `CC(=O)N[C@H](Cc1ccc2ccccc2c1)C(=O)N[C@H](Cc1ccc(Cl)cc1)C(=O)N[C@@H]1CSSC[C@@H](C(=O)N2CCC[C@H]2C(=O)N[C@H](C)C(N)=O)NC(=O)[C@H](CC(C)C)NC(=O)[C@@H](Cc2ccc3ccccc3c2)NC(=O)[C@H](CCCN=C(N)N)NC(=O)[C@H](C)NC1=O` returned an inhibition constant Ki in assay [1] of 9.9 nM. In assay [1], `CC(=O)N[C@H]1CCC(=O)NCC(=O)NCC[C@@H]2NC(=O)[C@H](CC(=O)NC[C@@H](C(N)=O)NC(=O)[C@@H]3CCCN3C(=O)[C@H](CCCNC(=N)N)NC(=O)[C@H](CC(C)C)NC(=O)[C@@H](Cc3ccc4ccccc4c3)NC2=O)NC(=O)[C@@H](Cc2c[nH]c3ccccc23)NC(=O)[C@@H](Cc2ccc(Cl)cc2)NC1=O` came in with a Ki of 0.24 nM. As for `CC(=O)N[C@H]1CC(=O)NCC(=O)NCC[C@@H]2NC(=O)[C@H](CC(=O)NC[C@@H](C(N)=O)NC(=O)[C@@H]3CCCN3C(=O)[C@H](CCCN=C(N)N)NC(=O)[C@H](CC(C)C)NC(=O)[C@@H](Cc3ccc4ccccc4c3)NC2=O)NC(=O)[C@@H](Cc2c[nH]c3ccccc23)NC(=O)[C@@H](Cc2ccc(Cl)cc2)NC1=O`, the affinity in assay [1] corresponds to a Ki of 0.22 nM. For `CC(C)C[C@@H]1NC(=O)[C@@H](Cc2ccc3ccccc3c2)NC(=O)[C@H](CCCNC(=N)N)NC(=O)[C@H](C)NC(=O)[C@@H](Cc2cccnc2)NC(=O)[C@@H](Cc2ccc(Cl)cc2)NC(=O)[C@@H](Cc2ccc3ccccc3c2)NC(=O)CCC(=O)NCCCC[C@@H](C(=O)N2CCC[C@H]2C(=O)N[C@H](C)C(N)=O)NC1=O`, the Ki in assay [1] (hek293) was 21 nM. As for `CC(=O)N[C@H](Cc1ccc2ccccc2c1)C(=O)N[C@H](Cc1ccc(Cl)cc1)C(=O)N[C@@H]1CC(=O)NCCCC[C@@H](C(=O)N2CCC[C@H]2C(=O)N[C@H](C)C(N)=O)NC(=O)[C@H](CC(C)C)NC(=O)[C@@H](Cc2ccc3ccccc3c2)NC(=O)[C@H](CCCN=C(N)N)NC(=O)[C@H](C)NC1=O`, in assay [1], the Ki is 2.3 nM. In assay [1], `CC(=O)N1CC=C[C@H]1C(=O)N[C@H](Cc1ccc(F)cc1)C(=O)N[C@H](Cc1c[nH]c2ccccc12)C(=O)N[C@H]1CC(=O)NC[C@@H](C(N)=O)NC(=O)[C@@H]2CCCN2C(=O)[C@H](CCCN=C(N)N)NC(=O)[C@H](CC(C)C)NC(=O)[C@@H](Cc2ccc3ccccc3c2)NC(=O)[C@H](Cc2ccc(O)cc2)NC1=O` (Ac-[ΔPro][dPhe(4-F)][dW]DY[d2Nal]LRP[Dap]-NH2; lactam 4-10) came in with a Ki of 0.27 nM. This Ki is about 8.5-fold lower than that of the molecule before. Same read-out and setting: then `CC(C)C[C@H]1C(=O)N[C@@H](CCCN=C(N)N)C(=O)N2CCC[C@H]2C(=O)NCCC(=O)N2CC=C[C@H]2C(=O)N[C@H](Cc2ccc(Cl)cc2)C(=O)N[C@H](Cc2c[nH]c3ccccc23)C(=O)N[C@@H](CO)C(=O)N[C@@H](Cc2ccc(O)cc2)C(=O)N[C@H](Cc2c[nH]c3ccccc23)C(=O)N1C` (cyclo([NMeL]RP[βAla][ΔPro][dPhe(4-Cl)][dW]SY[dW])), with 14 nM.
